Laboratory results: PubChem BioAssay AID220 (DTP/NCI, 2004)
Where “and” joins values, the source holds several entries; their conditions need not be identical. Equal entries are not always repeated. Inconclusive results are not listed.

Test system: CD8F1 mice, subcutaneous mammary adenocarcinoma, T/C%
Test: NCI In Vivo Anticancer Drug Screen. Data for tumor model Mammary Adenocarcinoma CD8F1 (subcutaneous) in CD8F1
Conditions: higher = larger tumour
In short: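 Antitumor activity is assessed in transplantable-tumor mice by comparing the treated group with a vehicle-treated control group. Survival or tumor size serves as the measure, reported as T divided by C.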

[1] = endpoint: median tumor weight (est.), dose: 50.0 mg/kg/injection, schedule: Q07DX005 (ip), vehicle: saline with Tween-80
[2] = endpoint: median tumor weight (est.), dose: 100.0 mg/kg/injection, schedule: Q07DX005 (ip), vehicle: saline with Tween-80
[3] = endpoint: median tumor weight change, dose: 250.0 mg/kg/injection, schedule: Q01DX001 (ip), vehicle: Klucel (hydroxypropylcellulose) (HPC)
[4] = endpoint: median tumor weight change, dose: 250.0 mg/kg/injection, schedule: Q01DX001 (ip), vehicle: saline
[5] = endpoint: median tumor weight change, dose: 500.0 mg/kg/injection, schedule: Q01DX001 (ip), vehicle: Klucel (hydroxypropylcellulose) (HPC)
[6] = endpoint: median tumor weight change, dose: 1000.0 mg/kg/injection, schedule: Q01DX001 (ip), vehicle: Klucel (hydroxypropylcellulose) (HPC)
[7] = endpoint: median tumor weight change, dose: 2000.0 mg/kg/injection, schedule: Q01DX001 (ip), vehicle: Klucel (hydroxypropylcellulose) (HPC)
[8] = endpoint: median tumor weight (est.), dose: 6.25 mg/kg/injection, schedule: Q07DX005 (ip), vehicle: Klucel (hydroxypropylcellulose) (HPC)
[9] = endpoint: median tumor weight (est.), dose: 12.5 mg/kg/injection, schedule: Q07DX005 (ip), vehicle: Klucel (hydroxypropylcellulose) (HPC)
[10] = endpoint: median tumor weight (est.), dose: 50.0 mg/kg/injection, schedule: Q07DX005 (ip), vehicle: Klucel (hydroxypropylcellulose) (HPC)
[11] = endpoint: median tumor weight (est.), dose: 100.0 mg/kg/injection, schedule: Q07DX005 (ip), vehicle: Klucel (hydroxypropylcellulose) (HPC)
[12] = endpoint: median tumor weight (est.), dose: 200.0 mg/kg/injection, schedule: Q07DX005 (ip), vehicle: Klucel (hydroxypropylcellulose) (HPC)
[13] = endpoint: median tumor weight change, dose: 125.0 mg/kg/injection, schedule: Q01DX001 (ip), vehicle: Klucel (hydroxypropylcellulose) (HPC)
[14] = endpoint: median tumor weight (est.), dose: 6.25 mg/kg/injection, schedule: Q07DX005 (ip), vehicle: saline with Tween-80
[15] = endpoint: median tumor weight (est.), dose: 12.5 mg/kg/injection, schedule: Q07DX005 (ip), vehicle: saline with Tween-80
[16] = endpoint: median tumor weight change, dose: 250.0 mg/kg/injection, schedule: Q01DX001 (ip), vehicle: saline with Tween-80
[17] = endpoint: median tumor weight change, dose: 500.0 mg/kg/injection, schedule: Q01DX001 (ip), vehicle: saline with Tween-80
[18] = endpoint: median tumor weight (est.), dose: 3.12 mg/kg/injection, schedule: Q07DX005 (ip), vehicle: saline with Tween-80

With OCC1OC(n2cnc3c(=S)nc[nH]c32)C(O)C1O (stereo not drawn) the T/C [1] was 23 % of control, the T/C [2] was 34 % of control and the T/C (endpoint: median tumor weight (est.), dose: 200.0 mg/kg/injection, schedule: Q07DX005 (ip), vehicle: saline with Tween-80) was 13 % of control and 37 % of control. The T/C (endpoint: median tumor weight (est.), dose: 400.0 mg/kg/injection, schedule: Q07DX005 (ip), vehicle: saline with Tween-80) was 8 % of control and 15 % of control, the T/C (endpoint: median tumor weight change, dose: 25.0 mg/kg/injection, schedule: Q01DX001 (ip), vehicle: saline with Tween-80) was 73 % of control and the T/C (endpoint: median tumor weight change, dose: 50.0 mg/kg/injection, schedule: Q01DX001 (ip), vehicle: saline with Tween-80) was 71 % of control. For the same compound, the T/C (endpoint: median tumor weight change, dose: 100.0 mg/kg/injection, schedule: Q01DX001 (ip), vehicle: saline with Tween-80) was 78 % of control, the T/C (endpoint: median tumor weight change, dose: 125.0 mg/kg/injection, schedule: Q01DX001 (ip), vehicle: saline) was 78 % of control and the T/C (endpoint: median tumor weight change, dose: 200.0 mg/kg/injection, schedule: Q01DX001 (ip), vehicle: saline with Tween-80) was 56 % of control. The T/C [3] was 89 % of control, the T/C [4] was 72 % of control and the T/C (endpoint: median tumor weight change, dose: 400.0 mg/kg/injection, schedule: Q01DX001 (ip), vehicle: saline with Tween-80) was 60 % of control. For the same compound, the T/C [5] was 79 % of control, the T/C (endpoint: median tumor weight change, dose: 500.0 mg/kg/injection, schedule: Q01DX001 (ip), vehicle: saline) was 97 % of control and the T/C [6] was 52 % of control. For the same compound, the T/C (endpoint: median tumor weight change, dose: 1000.0 mg/kg/injection, schedule: Q01DX001 (ip), vehicle: saline) was 53 % of control, the T/C [7] was 26 % of control and the T/C (endpoint: median tumor weight change, dose: 2000.0 mg/kg/injection, schedule: Q01DX001 (ip), vehicle: saline) was 67 % of control.

In the case of OCC1OC(n2cnc3cncnc32)C(O)C1O (stereo not drawn), the T/C (endpoint: median tumor weight (est.), dose: 3.12 mg/kg/injection, schedule: Q07DX005 (ip), vehicle: saline) is reported as 114 % of control, the T/C (endpoint: median tumor weight (est.), dose: 6.25 mg/kg/injection, schedule: Q07DX005 (ip), vehicle: saline) is reported as 59 % of control and the T/C (endpoint: median tumor weight (est.), dose: 12.5 mg/kg/injection, schedule: Q07DX005 (ip), vehicle: saline) is reported as 65 % of control.

With CCCC(=O)Nc1ncnc2c1ncn2C1OC2COP(=O)(O)OC2C1OC(=O)CCC (stereo not drawn) the T/C (endpoint: mean tumor weight, dose: 50.0 mg/kg/injection, schedule: Q01DX009 (ip), vehicle: saline) was 100 % of control, the T/C (endpoint: mean tumor weight, dose: 100.0 mg/kg/injection, schedule: Q07DX007 (ip), vehicle: saline) was 117 % of control and the T/C (endpoint: mean tumor weight, dose: 200.0 mg/kg/injection, schedule: Q01DX009 (ip), vehicle: saline) was 111 % of control. For the same compound, the T/C (endpoint: mean tumor weight, dose: 200.0 mg/kg/injection, schedule: Q07DX007 (ip), vehicle: saline) was 78 % of control, the T/C (endpoint: mean tumor weight, dose: 400.0 mg/kg/injection, schedule: Q01DX009 (ip), vehicle: saline) was 55 % of control and the T/C (endpoint: mean tumor weight, dose: 400.0 mg/kg/injection, schedule: Q07DX007 (ip), vehicle: saline) was 43 % of control. For the same compound, the T/C (endpoint: median tumor weight (est.), dose: 25.0 mg/kg/injection, schedule: Q07DX005 (ip), vehicle: saline) was 75 % of control, the T/C (endpoint: median tumor weight (est.), dose: 50.0 mg/kg/injection, schedule: Q07DX005 (ip), vehicle: saline) was 114 % of control and the T/C (endpoint: median tumor weight (est.), dose: 100.0 mg/kg/injection, schedule: Q07DX005 (ip), vehicle: saline) was 122 % of control. The T/C (endpoint: median tumor weight (est.), dose: 200.0 mg/kg/injection, schedule: Q07DX005 (ip), vehicle: saline) was 77 % of control, the T/C (endpoint: median tumor weight (est.), dose: 400.0 mg/kg/injection, schedule: Q07DX005 (ip), vehicle: saline) was 83 % of control and the T/C (endpoint: median tumor weight (est.), dose: 800.0 mg/kg/injection, schedule: Q07DX005 (ip), vehicle: saline) was 72 % of control.

O=C1c2cccc(NCCCNCCO)c2C(=O)c2cccc(NCCCNCCO)c21 was tested, and the T/C (endpoint: median tumor weight change, dose: 6.25 mg/kg/injection, schedule: Q01DX001 (ip), vehicle: acid diluted with saline) was 36 % of control, the T/C (endpoint: median tumor weight change, dose: 12.5 mg/kg/injection, schedule: Q01DX001 (ip), vehicle: acid diluted with saline) was 47 % of control and the T/C (endpoint: median tumor weight change, dose: 25.0 mg/kg/injection, schedule: Q01DX001 (ip), vehicle: acid diluted with saline) was 29 % of control. For the same compound, the T/C (endpoint: median tumor weight change, dose: 50.0 mg/kg/injection, schedule: Q01DX001 (ip), vehicle: acid diluted with saline) was 23 % of control and the T/C (endpoint: median tumor weight change, dose: 100.0 mg/kg/injection, schedule: Q01DX001 (ip), vehicle: acid diluted with saline) was 54 % of control.

In the case of COc1c(CNC(=O)CCl)cc2[nH]c(C)cc2c1CNC(=O)CCl, the T/C [8] is reported as 92 % of control, the T/C [9] is reported as 67 % of control and the T/C [10] is reported as 97 % of control. For the same compound, the T/C [11] was 55 % of control, the T/C [12] was 57 % of control and the T/C [13] was 106 % of control. The T/C [3] was 108 % of control.

In the case of Cc1nn(CCO)c(C)c1N=[N+]([O-])c1c(C)nn(CCO)c1C, the T/C [8] is reported as 57 % of control, the T/C [9] is reported as 63 % of control and the T/C (endpoint: median tumor weight (est.), dose: 25.0 mg/kg/injection, schedule: Q07DX005 (ip), vehicle: Klucel (hydroxypropylcellulose) (HPC)) is reported as 91 % of control. For the same compound, the T/C [10] was 104 % of control and the T/C [11] was 43 % of control.

For CCCCCCCC(=O)[O][Hg][CH2]C1COC([CH2][Hg][O]C(=O)CCCCCCC)CO1 (stereo not drawn), the T/C (endpoint: median tumor weight (est.), dose: 3.0 mg/kg/injection, schedule: Q07DX005 (ip), vehicle: saline with Tween-80) was 90 % of control, the T/C (endpoint: median tumor weight (est.), dose: 6.0 mg/kg/injection, schedule: Q07DX005 (ip), vehicle: saline with Tween-80) was 95 % of control and the T/C [14] was 100 % of control. The T/C (endpoint: median tumor weight (est.), dose: 12.0 mg/kg/injection, schedule: Q07DX005 (ip), vehicle: saline with Tween-80) was 80 % of control, the T/C [15] was 50 % of control and the T/C [1] was 100 % of control.

Cc1nnc2ncccn12 was tested, and the T/C [4] was 92 % of control.

For CC(=O)N(C)O, the T/C (endpoint: median tumor weight change, dose: 125.0 mg/kg/injection, schedule: Q01DX001 (ip), vehicle: saline with Tween-80) was 80 % of control, the T/C [16] was 63 % of control and the T/C [17] was 50 % of control.

Cc1cnc(/C=N\NC(N)=S)c2cccc(N)c12 was tested, and the T/C [18] was 93 % of control, the T/C [15] was 83 % of control and 94 % of control and the T/C (endpoint: median tumor weight (est.), dose: 25.0 mg/kg/injection, schedule: Q07DX005 (ip), vehicle: saline with Tween-80) was 54 % of control and 71 % of control. The T/C [1] was 46 % of control and 62 % of control and the T/C [2] was 55 % of control and 66 % of control.

OCC1OC(n2cnc3c2NC=NC[C@H]3O)CC1O (stereo partly drawn) was tested, and the T/C (endpoint: median tumor weight (est.), dose: 0.25 mg/kg/injection, schedule: Q07DX005 (ip), vehicle: water) was 104 % of control, the T/C (endpoint: median tumor weight (est.), dose: 0.5 mg/kg/injection, schedule: Q07DX005 (ip), vehicle: water) was 108 % of control and the T/C (endpoint: median tumor weight (est.), dose: 2.0 mg/kg/injection, schedule: Q07DX005 (ip), vehicle: water) was 63 % of control. For the same compound, the T/C (endpoint: median tumor weight (est.), dose: 4.0 mg/kg/injection, schedule: Q07DX005 (ip), vehicle: water) was 51 % of control and the T/C (endpoint: median tumor weight (est.), dose: 8.0 mg/kg/injection, schedule: Q07DX005 (ip), vehicle: water) was 60 % of control.

In the case of CC1=CC2c3cccc4[nH]cc(c34)CC2N(C)C1 (stereo not drawn), the T/C (endpoint: median tumor weight change, dose: 25.0 mg/kg/injection, schedule: Q01DX001 (ip), vehicle: suspension in saline) is reported as 115 % of control.

With C=CC(=O)N1CN(C(=O)C=C)CN(C(=O)C=C)C1 the T/C [18] was 89 % of control, the T/C [14] was 111 % of control and the T/C [15] was 31 % of control.

O=Cc1c(O)c2ccccc2[nH]c1=O was tested, and the T/C (endpoint: median tumor weight change, dose: 62.0 mg/kg/injection, schedule: Q01DX001 (ip), vehicle: saline with Tween-80) was 112 % of control, the T/C (endpoint: median tumor weight change, dose: 62.5 mg/kg/injection, schedule: Q01DX001 (ip), vehicle: saline with Tween-80) was 69 % of control and the T/C [16] was 61 % of control and 67 % of control. The T/C [17] was 55 % of control.

For Cn1cnc([N+](=O)[O-])c1SCC(=O)O, the T/C [11] was 100 % of control, the T/C [12] was 107 % of control and the T/C (endpoint: median tumor weight (est.), dose: 400.0 mg/kg/injection, schedule: Q07DX005 (ip), vehicle: Klucel (hydroxypropylcellulose) (HPC)) was 166 % of control. The T/C (endpoint: median tumor weight (est.), dose: 800.0 mg/kg/injection, schedule: Q07DX005 (ip), vehicle: Klucel (hydroxypropylcellulose) (HPC)) was 65 % of control, the T/C (endpoint: median tumor weight change, dose: 62.5 mg/kg/injection, schedule: Q01DX001 (ip), vehicle: Klucel (hydroxypropylcellulose) (HPC)) was 75 % of control and the T/C [13] was 72 % of control. The T/C [3] was 76 % of control, the T/C [5] was 74 % of control and the T/C [6] was 60 % of control. The T/C [7] was 68 % of control.
